The species entered for one assay is Homo sapiens. The assay can be described thus: Selectivity for human CYP11B1 over CYP11B2.
The target in assay [1] is T1, Cytochrome P450 11B2, mitochondrial (Homo sapiens, UniProt P19099).
T1 sequence (P19099 whole entry): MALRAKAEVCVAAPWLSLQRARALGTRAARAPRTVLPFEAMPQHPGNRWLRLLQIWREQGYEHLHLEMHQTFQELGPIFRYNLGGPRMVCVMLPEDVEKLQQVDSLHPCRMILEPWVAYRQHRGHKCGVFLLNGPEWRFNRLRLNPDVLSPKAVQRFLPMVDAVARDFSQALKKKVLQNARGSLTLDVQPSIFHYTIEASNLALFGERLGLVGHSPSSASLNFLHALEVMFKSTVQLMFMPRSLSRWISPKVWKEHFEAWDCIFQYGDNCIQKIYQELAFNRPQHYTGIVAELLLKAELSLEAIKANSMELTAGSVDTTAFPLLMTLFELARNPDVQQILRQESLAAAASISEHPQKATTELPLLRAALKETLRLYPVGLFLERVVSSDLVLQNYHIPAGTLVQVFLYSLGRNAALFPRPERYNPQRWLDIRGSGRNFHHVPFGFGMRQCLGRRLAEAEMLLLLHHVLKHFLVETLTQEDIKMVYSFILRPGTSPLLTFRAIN
The assay can be described thus: Inhibition of aldosterone synthase (CYP11B2) expressed in V79 hamster fibroblasts.

Assay [2] has as its target T2, Cytochrome P450 11B1, mitochondrial (Homo sapiens, UniProt P15538).
T2 sequence (P15538 whole entry): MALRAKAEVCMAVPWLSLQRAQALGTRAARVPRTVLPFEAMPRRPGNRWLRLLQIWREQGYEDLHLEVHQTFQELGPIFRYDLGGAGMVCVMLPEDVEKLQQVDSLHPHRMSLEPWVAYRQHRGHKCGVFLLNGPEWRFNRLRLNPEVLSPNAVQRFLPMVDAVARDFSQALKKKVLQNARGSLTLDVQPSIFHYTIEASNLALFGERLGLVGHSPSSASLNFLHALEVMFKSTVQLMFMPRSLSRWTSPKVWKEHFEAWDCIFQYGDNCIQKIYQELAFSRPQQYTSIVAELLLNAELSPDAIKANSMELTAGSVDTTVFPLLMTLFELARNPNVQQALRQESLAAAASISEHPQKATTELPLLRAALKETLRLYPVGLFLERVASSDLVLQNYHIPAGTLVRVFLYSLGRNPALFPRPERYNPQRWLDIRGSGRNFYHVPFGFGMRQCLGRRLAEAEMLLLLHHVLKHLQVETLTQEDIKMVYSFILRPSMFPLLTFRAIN
Description: Inhibition of human CYP11B1 expressed in V79 hamster fibroblasts.

SMILES strings stand for the structures. pIC50: −log10 of the molar value.

As to `c1cncc(-c2ccc3cccc4c3c2CC4)c1`, in the assay filed under Homo sapiens, the Ratio IC50 was found to be 245.

As usually defined, the pIC50 is −log10 of the IC50, conventionally taken in molar units. Consider `c1cncc(-c2ccc3c4c(cccc24)CC3)c1`, for which the figures for the pIC50 in assay [1] and in assay [2] were 7.85 and 5.54, respectively. The Ratio IC50 in the assay listed under Homo sapiens stood at 207.

The values are drawn from ChEMBL document CHEMBL1147778, “Development and evaluation of a pharmacophore model for inhibitors of aldosterone synthase (CYP11B2)” (Bioorg Med Chem Lett, 2006).
